Results taken from patent publication US12428370B2, “Haloallylamine dual amine oxidase inhibitors” (Syntara Limited, priority 2020, dated 2025).
Structures can show the parent of a compound that is named as a salt.

What was measured:
[1] = test system: mdx mice (C57BL/10ScSn-Dmdmdx/J); experiment: Mouse model of Duchenne muscular dystrophy, Compound 1; format: in vivo; settings: 4.8 mg/kg/day oral
Protocol: Three-months old mdx mice (C57BL/10ScSn-Dmdmdx/J) received daily doses of Compound 1 (in a range of 1-6 mg/kg) administered in the drinking water for thirty days. Untreated, age-matched animals were used as controls. A second cohort of mice aged 10 months-old received daily doses of Compound 1 (in a range of 1-6 mg/kg) administered in the drinking water for ninety days. Untreated, age-matched animals were used as controls.
After the end of each treatment period, animals were sacrificed by cervical dislocation and the skeletal muscle and the heart (minus the atria) collected, flash-frozen in isopentane pre-cooled with liquid nitrogen and stored at −80° C. 12 μm sections from the diaphragm muscle were prepared with a cryotome; multiple serial slides were prepared, containing sections from at least three different levels. The same procedure was used to prepare heart transverse sections.
The amount of the neutrophil and macrophage infiltration, reactive oxygen species (ROS) present and the percentage of fibrotic tissue, was determined as described in EXAMPLE 17.

[2] = test system: cytochrome P450 (1A2, 2B6, 2C8, 2C9, 2C19, 2D6, 3A4); 44 enzymes, receptors, ion channels and transporters; 13 common transporters; 7 cardiac ion channel …; experiment: Off-target profile (cytochrome P450, Safety Screen panel, Transporter panel, Cardiac Ion Channel panel); settings: all assays: CYP at 30 μM, panels at 10 μM, cardiac ion channels up to 300 μM
Protocol: Assessment of the off-target profile of Compound 1 using standardized commercially available methods (available through contract research organizations such as Eurofins Panlabs Inc, (https://www.eurofinsdiscoveryservices.com/services/in-vitro-assays/) or Evotec SE, (https://www.evotec.com/en/execute/integrated-pre-clinical-development/adme)).
The potential for off-target promiscuity in vivo was evaluated in vitro using the following assays:
Inhibition of cytochrome P450 activity (30 μM single concentration; 1A2, 2B6, 2C8, 2C9, 2C19, 2D6, 3A4)
Eurofins Discovery Safety Screen panel of 44 enzymes, receptors, ion channels and transporters (percentage inhibition at 10 μMconcentration).
Eurofins Transporter Protein Screen panel of 13 common transporters (percentage inhibition at 10 μM concentration).
Aptuit Cardiac Ion Channel panel of 7 targets (automated patch clamp assay; concentration 0 up to 300 μM).

[3] = test system: mdx mice (C57BL/10ScSn-Dmdmdx/J); experiment: Mouse model of Duchenne muscular dystrophy, PXS-5131; format: in vivo; settings: 6 mg/kg/day oral, 4 weeks, 3 months old mdx mice
Protocol: mdx mice (C57BL/10ScSn-Dmdmdx/J) were obtained from Jackson Laboratories, Maine, US. […] Untreated, age-matched animals were used as controls. The drug was administered using small palatable gelatin pellets prepared with 10% gelatin in 20% sucralose plus food flavoring (Zhang L. Protoc. Exch. 2011, 236) Animals were pre-conditioned to recognize and eat the gelatins with a three-day routine involving overnight fasting followed by exposure of each single animal to the gelatin without the active principle, in the absence of other food. Palatability was further improved by dipping the pellets in corn oil containing trace amounts of almond oil and then breading them with pulverized food pellet.
Muscle function in vivo was assessed for the gastrocnemius muscle, as described by Blaauw B. et al., Hum. Mol. Genet. 2008, 17, 3686-3696. Mice were anesthetized, and electrodes were placed on either side of the sciatic nerve, while the common peroneal nerve was cut. Muscle torque production was measured using a lever system (Aurora Scientific 305B). A lever arm of 2.1 mm was used for all groups, as no major differences in body weight between various groups was observed. Eccentric contractions were performed by moving the foot backward at a velocity of 40 mm/s while the gastrocnemius was stimulated with a frequency sufficient to induce full tetanic fusion (100 Hz). Contractions were repeated once every 20 s to avoid inducing fatigue (see FIG. 6).
After the force measurements described above, animals were sacrificed by cervical dislocation and the skeletal muscle and the heart (minus the atria) were collected, flash-frozen in isopentane pre-cooled with liquid nitrogen and stored at −80° C. 12 μm sections from a limb muscle (tibialis anterior) were prepared with a cryotome; multiple serial slides were prepared, containing sections from at least three different levels. The same procedure was used to prepare heart transverse sections.
The amount of the neutrophil and macrophage infiltration was determined in serial sections of skeletal muscle prepared as described above, which were fixed and then stained via immunofluorescence with an anti Ly6G and an anti F4/80 antibody (AbCam, ab25377 and ab6640, for neutrophils and macrophages, respectively). The amount of infiltrate was assessed as percentage of fluorophore-positive pixel over the total area of the sections, using Image-J software (FIGS. 7A and B).
The amount of reactive oxygen species (ROS) present in the skeletal muscle tissue sections was assessed using dihydroethidium (DHE, Sigma) as a fluorescent probe in freshly cut tissue sections as described by Menazza et al., et al., Hum. Mol. Genet. 2010, 19, 4207-4215. In the presence of ROS, DHE is oxidized forming ethidium, which then can bind to nuclear DNA and emit red fluorescence. The amount of the red fluorescence was then measured from at least 20 random fields per each section using the Metafluor software (Leica), and data were averaged per field (FIG. 7C).
The percentage of fibrotic tissue in skeletal muscle was determined by picrosirius red staining. […] Whole images of at least three sections per muscle sample were then acquired with a bright field microscope and then analyzed with Image-J software, in order to measure the percentage of fibrotic (red) areas with respect to the total surface (FIG. 7D).

**Q.** Which results are given for `N#Cc1ccc(OC/C(=C/F)CN)cc1` [Compound 1, (E)-4-((2-(aminomethyl)-3-fluoroallyl)oxy) benzonitrile]?
**A.** cardiac fibrosis (picrosirius red staining in the heart muscle) ([1]; ninety days, 10 months-old mdx mice, p<0.0001, FIG. 13): significantly reduces; neutrophil influx in the diaphragm muscle ([1]; thirty days, 3 months-old mdx mice, p<0.0001, FIG. 12A): significantly reduces; macrophage influx in the diaphragm muscle ([1]; thirty days, 3 months-old mdx mice, p<0.0001, FIG. 12B): significantly reduces; reactive oxygen species in the diaphragm muscle ([1]; thirty days, 3 months-old mdx mice, p<0.0001, FIG. 12C): significantly reduces; fibrosis (picrosirius red staining) in the diaphragm muscle ([1]; thirty days, 3 months-old mdx mice, p<0.0001, FIG. 12D): significantly reduces; off-target profile [2]: favorable off-target profile

**Q.** For `NC/C(=C\F)C1Cc2ccccc2O1` (single isomer, unassigned; (-)) [PXS-5131, (−)-(E)-2-(2,3-Dihydrobenzofuran-2-Yl)-3-Fluoroprop-2-En-1-Amine Hydrochloride], which “neutrophil influx in the tibialis anterior muscle” value ([3]; p<0.0001, FIG. 7A) is on record?
**A.** significantly reduces

**Q.** What about the “macrophage influx in the tibialis anterior muscle” value ([3]; p<0.0001, FIG. 7B) of the same compound?
**A.** significantly reduces

**Q.** What about the “reactive oxygen species in the tibialis anterior muscle” value ([3]; p<0.0001, FIG. 7C) of the same compound?
**A.** significantly reduces

**Q.** What about the “fibrosis (picrosirius red staining) in the tibialis anterior muscle” value ([3]; p<0.0001, FIG. 7D) of the same compound?
**A.** significantly reduces

**Q.** What about the “loss of force caused by eccentric contractions in the gastrocnemius muscle” value ([3]; p<0.05, FIG. 6) of the same compound?
**A.** helps protect against the loss of force
